Source: US20230339952A1, “MACROCYCLIC HETEROCYCLES AND USES THEREOF” (Kumquat Biosciences Inc., priority 2022, published 2023)

Legend:
[1] = test system: NCI-H1975 (ATCC CRL-5908) cell line comprising an EGFR T790M L858R double mutation; assay: EGFR-SOS cellular inhibition assay (CellTiter-Glo cell proliferation); format: cell-based; details: Homo sapiens, 120 h; NCI-H1975 cell proliferation, approximately 5 days; read-out: H1975 IC50
Description: A CellTiter-Glo (CTG) luminescent based assay (Promega) is used to assess growth of the cells, as a measurement of the ability of the compounds herein to inhibit EGFR signaling in the cells. […] The day after plating, cells are treated with a dilution series (e.g., a 9 point 3-fold dilution series) of the compounds herein (e.g., approximately 125 μL final volume per well).

SOS1 = SOS1 (Homo sapiens (Human), UniProt Q07889); assay: Ras-SOS interaction assay (HTRF), K-Ras G13D utilized; format: binding; details: K-Ras G13D, read-out: SOS1 IC50
Chain of SOS1 (Q07889 564-1049): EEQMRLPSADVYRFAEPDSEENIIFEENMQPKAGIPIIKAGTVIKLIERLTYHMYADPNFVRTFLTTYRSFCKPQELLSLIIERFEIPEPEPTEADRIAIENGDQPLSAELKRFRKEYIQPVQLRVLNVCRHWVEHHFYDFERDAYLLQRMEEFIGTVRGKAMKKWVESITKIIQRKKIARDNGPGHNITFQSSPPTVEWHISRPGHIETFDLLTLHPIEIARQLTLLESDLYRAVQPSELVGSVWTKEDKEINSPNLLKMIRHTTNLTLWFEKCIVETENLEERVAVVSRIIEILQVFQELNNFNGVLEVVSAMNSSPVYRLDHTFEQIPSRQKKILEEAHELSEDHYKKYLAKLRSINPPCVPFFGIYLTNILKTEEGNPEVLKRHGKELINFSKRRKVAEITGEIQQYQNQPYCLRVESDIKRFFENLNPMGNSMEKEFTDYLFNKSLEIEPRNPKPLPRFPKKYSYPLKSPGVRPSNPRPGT

IC50 [1] | IC50 (SOS1) | Structure (SMILES)
< 1000 nM | < 100 nM | C[C@H]1Nc2ncnc3c2cc(C2CCS(=O)(=O)CC2)c(=O)n3CCCCCCCN2CCC(CC2)C(F)(F)c2cccc1c2 [Compound 83, (4R)-6^6-(1,1-dioxidotetrahydro-2H-thiopyran-4-yl)-2,2-difluoro-4-methyl-6^7,6^8-dihydro-5-aza-6(4,8)-pyrido[2,3-d]pyrimidina-1(4,1)-piperidina-3(1,3)-benzenacyclotridecaphan-6^7-one]
< 1000 nM | < 100 nM | C[C@H]1Nc2ncnc3c2cc(C2CCS(=O)(=O)CC2)c(=O)n3CCCCC[C@H](O)CN2CCC(CC2)C(F)(F)c2cccc1c2 [Compound 86, (4R,12S)-6^6-(1,1-dioxidotetrahydro-2H-thiopyran-4-yl)-2,2-difluoro-12-hydroxy-4-methyl-6^7,6^8-dihydro-5-aza-6(4,8)-pyrido[2,3-d]pyrimidina-1(4,1)-piperidina-3(1,3)-benzenacyclotridecaphan-6^7-one]
< 1000 nM | < 100 nM | C[C@H]1Nc2ncnc3c2cc(C2(C#N)CC2)c(=O)n3CCC/C=C/CN2CCC(CC2)CC(F)(F)c2cccc1c2F [Compound 89, 1-((3R,E)-4^2,5,5-trifluoro-3-methyl-1^7-oxo-1^7,1^8-dihydro-2-aza-1(4,8)-pyrido[2,3-d]pyrimidina-7(4,1)-piperidina-4(1,3)-benzenacyclotridecaphan-9-en-1^6-yl)cyclopropane-1-carbonitrile]
< 1000 nM | < 100 nM | C[C@H]1Nc2ncnc3c2cc(C2(C#N)CC2)c(=O)n3CCCCn2cc(nn2)CN2CCC(CC2)C(F)(F)c2cccc1c2 [Compound 94, 1-((6R,Z)-4,4-difluoro-6-methyl-8^7-oxo-8^7,8^8-dihydro-1^1H-7-aza-8(4,8)-pyrido[2,3-d]pyrimidina-3(1,4)-piperidina-1(4,1)-triazola-5(1,3)-benzenacyclododecaphane-8^6-yl)cyclopropane-1-carbonitrile]
< 1000 nM | < 100 nM | C[C@H]1Nc2ncnc3c2cc(C2(C#N)CC2)c(=O)n3CCCn2cc(nn2)CN2CCC(CC2)C(F)(F)c2cccc1c2 [Compound 95, 1-((6R,Z)-4,4-difluoro-6-methyl-8^7-oxo-8^7,8^8-dihydro-11H-7-aza-8(4,8)-pyrido[2,3-d]pyrimidina-3(1,4)-piperidina-1(4,1)-triazola-5(1,3)-benzenacycloundecaphane-8^6-yl)cyclopropane-1-carbonitrile]
< 1000 nM | < 100 nM | C[C@H]1Nc2ncnc3c2cc(C2(C#N)CC2)c(=O)n3CCCCCCN2CCC(CC2)C(F)(F)c2cccc1c2 [Compound 104, 1-((4R)-2,2-difluoro-4-methyl-6^7-oxo-6^7,6^8-dihydro-5-aza-6(4,8)-pyrido[2,3-d]pyrimidina-1(4,1)-piperidina-3(1,3)-benzenacyclododecaphane-6^6-yl)cyclopropane-1-carbonitrile]

Second part, the molecule before the results:

Structure (SMILES) | IC50 [1] | IC50 (SOS1)
C[C@H]1Nc2ncnc3c2cc(C2CCS(=O)(=O)CC2)c(=O)n3CC(=O)N(C)CCCCN2CCC(CC2(C)C)C(F)(F)c2cccc1c2 (stereo partly drawn) [Compound 78, (1^4R,4R)-6^6-(1,1-dioxidotetrahydro-2H-thiopyran-4-yl)-2,2-difluoro-1^2,1^2,4,9-tetramethyl-6^7,6^8-dihydro-5,9-diaza-6(4,8)-pyrido[2,3-d]pyrimidina-1(4,1)-piperidina-3(1,3)-benzenacyclotridecaphane-6^7,8-dione] | < 1000 nM | < 100 nM
C/C1=C\CCCCn2c(=O)c(C3CCS(=O)(=O)CC3)cc3c(ncnc32)N[C@H](C)c2cccc(c2)C(F)(F)C2CCN(CC2)C1 [Compound 80, (4R,E)-6^6-(1,1-dioxidotetrahydro-2H-thiopyran-4-yl)-2,2-difluoro-4,12-dimethyl-6^7,6^8-dihydro-5-aza-6(4,8)-pyrido[2,3-d]pyrimidina-1(4,1)-piperidina-3(1,3)-benzenacyclotridecaphan-11-en-6^7-one] | < 1000 nM | < 100 nM
C[C@H]1Nc2ncnc3c2cc(C2CCS(=O)(=O)CC2)c(=O)n3CCCCNC(=O)[C@H](C)N2CCC(CC2)C(F)(F)c2cccc1c2 [Compound 85, (4R,13S)-6^6-(1,1-dioxidotetrahydro-2H-thiopyran-4-yl)-2,2-difluoro-4,13-dimethyl-6^7,6^8-dihydro-5,11-diaza-6(4,8)-pyrido[2,3-d]pyrimidina-1(4,1)-piperidina-3(1,3)-benzenacyclotridecaphane-6^7,12-dione] | < 1000 nM | < 100 nM
C[C@H]1Nc2nnc(c3c2cc(C2CCS(=O)(=O)CC2)c(=O)n3C)OCCCCN2CCC(CC2)C(F)(F)c2cccc1c2F [Compound 87, (R)-6^3-(1,1-dioxidotetrahydro-2H-thiopyran-4-yl)-3^2,2,2-trifluoro-6^1,4-dimethyl-6^1,6^2-dihydro-7-oxa-5-aza-6(5,8)-pyrido[2,3-d]pyridazina-1(4,1)-piperidina-3(1,3)-benzenacycloundecaphan-6^2-one] | < 1000 nM | 100 to 5000 nM
Cc1nc2c3cc(C4(C#N)CC4)c(=O)n(c3n1)CCCCCOCC(F)(F)c1cccc(c1F)[C@@H](C)N2 [Compound 88, 1-((3R)-4^2,5,5-trifluoro-1^2,3-dimethyl-1^7-oxo-1^7,1^8-dihydro-7-oxa-2-aza-1(4,8)-pyrido[2,3-d]pyrimidina-4(1,3)-benzenacyclododecaphane-1^6-yl)cyclopropane-1-carbonitrile] | > 10000 nM | 100 to 5000 nM
C[C@H]1Nc2ncnc3c2cc(C2CCS(=O)(=O)CC2)c(=O)n3CCCCCCN2CC(CCC(F)(F)c3cccc1c3F)C2 [Compound 90, (3R)-1^6-(1,1-dioxidotetrahydro-2H-thiopyran-4-yl)-4^2,5,5-trifluoro-3-methyl-1^7,1^8-dihydro-2-aza-1(4,8)-pyrido[2,3-d]pyrimidina-8(3,1)-azetidina-4(1,3)-benzenacyclotetradecaphan-1^7-one] | < 1000 nM | < 100 nM
C[C@H]1Nc2ncnc3c2cc(C2CCS(=O)(=O)CC2)c(=O)n3CCCNC(=O)CCN2CCC(CC2)C(F)(F)c2cccc1c2 [Compound 91, (4R)-6^6-(1,1-dioxidotetrahydro-2H-thiopyran-4-yl)-2,2-difluoro-4-methyl-6^7,6^8-dihydro-5,10-diaza-6(4,8)-pyrido[2,3-d]pyrimidina-1(4,1)-piperidina-3(1,3)-benzenacyclotridecaphane-6^7,11-dione] | < 1000 nM | < 100 nM
C[C@H]1Nc2ncnc3c2cc(C2CCS(=O)(=O)CC2)c(=O)n3CC/C=C\CC(C)(C)CN2CCC(CC2)C(F)(F)c2cccc1c2 [Compound 92, (4R,Z)-6^6-(1,1-dioxidotetrahydro-2H-thiopyran-4-yl)-2,2-difluoro-4,12,12-trimethyl-6^7,6^8-dihydro-5-aza-6(4,8)-pyrido[2,3-d]pyrimidina-1(4,1)-piperidina-3(1,3)-benzenacyclotridecaphan-9-en-6^7-one] | < 1000 nM | < 100 nM
CC1C/C=C\CCCN2CCC(CC2)C(F)(F)c2cccc(c2F)[C@@H](C)Nc2ncnc3c2cc(C2(C#N)CC2)c(=O)n31 (stereo partly drawn) [Compound 97, 1-((4R,Z)-3^2,2,2-trifluoro-4,7-dimethyl-6^7-oxo-6^7,6^8-dihydro-5-aza-6(4,8)-pyrido[2,3-d]pyrimidina-1(4,1)-piperidina-3(1,3)-benzenacyclotridecaphan-9-en-6^6-yl)cyclopropane-1-carbonitrile] | < 1000 nM | < 100 nM
C[C@H]1Nc2ncnc3c2cc(C2(C#N)CC2)c(=O)n3CC(=O)NCCC[C@H](C)N2CCC(CC2)C(F)(F)c2cccc1c2F [Compound 98, 1-((4R,13S)-3^2,2,2-trifluoro-4,13-dimethyl-6^7,8-dioxo-6^7,6^8-dihydro-5,9-diaza-6(4,8)-pyrido[2,3-d]pyrimidina-1(4,1)-piperidina-3(1,3)-benzenacyclotridecaphane-6^6-yl)cyclopropane-1-carbonitrile] | < 1000 nM | < 100 nM
Cc1nc2c3cc(C4(C#N)CC4)c(=O)n(c3n1)CCCC/C=C\COCC(F)(F)c1cccc(c1F)[C@@H](C)N2 [Compound 105, 1-((3R,Z)-4^2,5,5-trifluoro-1^2,3-dimethyl-1^7-oxo-1^7,1^8-dihydro-7-oxa-2-aza-1(4,8)-pyrido[2,3-d]pyrimidina-4(1,3)-benzenacyclotetradecaphan-9-en-1^6-yl)cyclopropane-1-carbonitrile] | < 1000 nM | < 100 nM
C[C@@H]1C(=O)NCCCCn2c(=O)c(C3CCS(=O)(=O)CC3)cc3c(ncnc32)N[C@H](C)c2cccc(c2)C(F)(F)C2CCN1CC2 [Compound 106, (4R,13R)-6^6-(1,1-dioxidotetrahydro-2H-thiopyran-4-yl)-2,2-difluoro-4,13-dimethyl-6^7,6^8-dihydro-5,11-diaza-6(4,8)-pyrido[2,3-d]pyrimidina-1(4,1)-piperidina-3(1,3)-benzenacyclotridecaphane-6^7,12-dione] | < 1000 nM | < 100 nM
CC1C/C=C\CCn2c(=O)c(C3CCS(=O)(=O)CC3)cc3c(ncnc32)N[C@H](C)c2cccc(c2F)C(F)(F)C2CCN(CC2)C1 (stereo partly drawn) [Compound 107, (4R,Z)-6^6-(1,1-dioxidotetrahydro-2H-thiopyran-4-yl)-3^2,2,2-trifluoro-4,12-dimethyl-6^7,6^8-dihydro-5-aza-6(4,8)-pyrido[2,3-d]pyrimidina-1(4,1)-piperidina-3(1,3)-benzenacyclotridecaphan-9-en-6^7-one] | < 1000 nM | < 100 nM
C[C@H]1Nc2ncnc3c2cc(C2CCS(=O)(=O)CC2)c(=O)n3CCCCn2cc(nn2)CN2CCC(CC2)C(F)(F)c2cccc1c2F [Compound 108, (6R,Z)-8^6-(1,1-dioxidotetrahydro-2H-thiopyran-4-yl)-5^2,4,4-trifluoro-6-methyl-8^7,8^8-dihydro-11H-7-aza-8(4,8)-pyrido[2,3-d]pyrimidina-3(1,4)-piperidina-1(4,1)-triazola-5(1,3)-benzenacyclododecaphan-8^7-one] | < 1000 nM | < 100 nM
